Measurements taken from the supplement of paper PMC10307832.

Tests used:
Test in all cases: relative viability (nuclei count vs DMSO), 5 days (fraction); higher = more cells survive
Vismodegib + Trametinib = compound: CS(=O)(=O)c1ccc(C(=O)Nc2ccc(Cl)c(-c3ccccn3)c2)c(Cl)c1 [Vismodegib] + CC(=O)Nc1cccc(-n2c(=O)n(C3CC3)c(=O)c3c(Nc4ccc(I)cc4F)n(C)c(=O)c(C)c32)c1 [Trametinib] (partner 0.02 µM)
Outline: (§1)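 Dosing by pin tool came one day after lung cancer cell lines were seeded in 1536-well plates, using either one drug or a fixed anchor-drug dose plus five library-drug doses (not always all listed) in √10 steps. After 5 days, nuclei were counted on 4× images. Relative viability is treated-well nuclei count divided by vehicle-well nuclei count, and values are medians of duplicate plates.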

Ruxolitinib + Dasatinib = compound: N#CC[C@H](C1CCCC1)n1cc(-c2ncnc3[nH]ccc23)cn1 [Ruxolitinib] + Cc1nc(Nc2ncc(C(=O)Nc3c(C)cccc3Cl)s2)cc(N2CCN(CCO)CC2)n1 [Dasatinib] (partner 0.075 µM)
Outline: as §1

VE-821 + Lapatinib = compound: CS(=O)(=O)c1ccc(-c2cnc(N)c(C(=O)Nc3ccccc3)n2)cc1 [VE-821] + CS(=O)(=O)CCNCc1ccc(-c2ccc3ncnc(Nc4ccc(OCc5cccc(F)c5)c(Cl)c4)c3c2)o1 [Lapatinib] (partner 2 µM)
Outline: as §1

Ruxolitinib + Luminespib = compound: N#CC[C@H](C1CCCC1)n1cc(-c2ncnc3[nH]ccc23)cn1 [Ruxolitinib] + CCNC(=O)c1noc(-c2cc(C(C)C)c(O)cc2O)c1-c1ccc(CN2CCOCC2)cc1 [Luminespib] (partner 0.01 µM)
Outline: as §1

UMC-11 was tested, and the relative viability (Vismodegib + Trametinib; first compound 0.08 µM) was 0.422, the relative viability (Vismodegib + Trametinib; first compound 0.253 µM) was 0.669 and the relative viability (Vismodegib + Trametinib; first compound 0.8 µM) was 0.609. The relative viability (Vismodegib + Trametinib; first compound 2.53 µM) was 0.618, the relative viability (Vismodegib + Trametinib; first compound 8 µM) was 0.375 and the relative viability (Ruxolitinib + Dasatinib; first compound 0.08 µM) was 0.437. For the same cell line, the relative viability (Ruxolitinib + Dasatinib; first compound 0.253 µM) was 0.492, the relative viability (Ruxolitinib + Dasatinib; first compound 0.8 µM) was 0.524 and the relative viability (Ruxolitinib + Dasatinib; first compound 2.53 µM) was 0.508. For the same cell line, the relative viability (Ruxolitinib + Dasatinib; first compound 8 µM) was 0.512, the relative viability (VE-821 + Lapatinib; first compound 0.08 µM) was 1.23 and the relative viability (VE-821 + Lapatinib; first compound 0.253 µM) was 0.845. It also gave a relative viability (VE-821 + Lapatinib; first compound 0.8 µM) of 0.916, a relative viability (VE-821 + Lapatinib; first compound 2.53 µM) of 1.12 and a relative viability (VE-821 + Lapatinib; first compound 8 µM) of 0.644. The relative viability (Ruxolitinib + Luminespib; first compound 0.08 µM) was 1.04, the relative viability (Ruxolitinib + Luminespib; first compound 0.253 µM) was 1.03 and the relative viability (Ruxolitinib + Luminespib; first compound 0.8 µM) was 1.26. It also gave a relative viability (Ruxolitinib + Luminespib; first compound 2.53 µM) of 1.1 and a relative viability (Ruxolitinib + Luminespib; first compound 8 µM) of 0.978.
